# Reference: patent US20050153288A1, “Methods for identifying gibberellin responsive genes using cultured vegetable cells” (priority 2001, published 2005)
# Entries after “also recorded” stand apart in the source; their conditions may differ. Like-named read-outs stand apart in the source and are kept apart here.
# How the values were obtained:
# [1] = system: CIGR1 gene and CIGR2 gene; assay: Effect of protein kinase/phosphatase inhibitors on GA3 induction of CIGR1 and CIGR2 genes in cultured rice cells; type: cell-based; conditions: inhibitor added ten minutes before treatment; okadaic acid 1 μM, lavendustin A 30 μM, K-252a 20 μM
# Procedure: (§1) FIG. 11 depicts photographs representing the effects of protein kinase inhibitors on elicitor response and gibberellin response. The following compounds were added ten minutes before treatment with chitin heptamer (GN7) or gibberellin (GA3). (A): the positive elicitor response control; (B) : okadaic acid (1 μM); (C) : lavendustin A (30 μM); (D) : K-252a (20 μM).
# (§2) (1) Rice cultured cells: The cultured cells of rice were induced from germinating rice seeds (Oryza sativa cv. Nipponbare) on an N6 agar plate containing 1 ppm 2,4-D (2,4-dichlorophenoxyacetic acid). The cells were successively cultured in liquid N6 medium as follows: Once a week, cells of about 1 ml in volume were transferred to 150 ml of N6 medium. Every two weeks, cell clusters were passed through a 20-mesh metal screen to reduce their size. Cells which had been transferred to 30 ml of medium with no screen treatment, and then shake-cultured for four to six days, were used for extraction of RNA for Northern blotting.
# (§3) (2) RNA extraction: The extraction of total RNA from cultured cells and green leaves of rice was carried out according to the phenol-SDS method. A Polytron homogenizer was used to homogenize living tissue in the presence of about tenfold or more volume to tissue-volume of phenol (about 90% saturated with water), and a volume of buffer solution (50 mM Tris-HCl pH 9.0, 1% SDS, 50 mM NaCl) equal to this phenol volume. The aqueous phase obtained by centrifugation was then repeatedly extracted with phenol. Total nucleic acid was precipitated by adding 0.6 volume of isopropanol to the extract and stirring the mixture. After dissolving the precipitate in water, a 0.25 volume of 10M LiCl was added, and the mixture was cooled on ice. High molecular weight RNA was collected by centrifugation, washed with 70% ethanol, and then dissolved in a small volume of water to be used as an RNA sample.
# (§4) (3) A method for gibberellin treatment of cultured cells and green leaves: The cultured cells were pre-washed several times with 2,4-D-free N6 medium, and then suspended in the same medium and shaken for two hours at 25° C. […]
# [2] = system: CIGR1 gene and CIGR2 gene; assay: Effect of protein kinase/phosphatase inhibitors on chitin heptamer induction of CIGR1 and CIGR2 genes in cultured rice cells; type: cell-based; conditions: inhibitor added ten minutes before treatment; okadaic acid 1 μM, lavendustin A 30 μM, K-252a 20 μM
# Procedure: as §1, §2, §3, §4
# [3] = system: CIGR1 gene and CIGR2 gene; assay: Induction of CIGR1 and CIGR2 gene expression by gibberellin in cultured rice cells (Northern blot hybridization); type: cell-based, rice (Oryza sativa cv. Nipponbare); conditions: for induction of CIGR1 and CIGR2 gene expression by gibberellin species: cultured rice cells treated for ten minutes
# Procedure: as §2, §3
# […] Gibberellin (GA3 dissolved in ethanol) was added to make up each final concentration, cells were cultured with shaking for predetermined periods, and then used for RNA extraction. Nipponbare plants grown for three weeks after seeding were sprayed with gibberellin. The third and fourth leaves were collected at certain intervals, and total RNA was extracted. Elicitor treatment was carried out by directly adding aqueous elicitor solution to cultured cells of rice.
# (4) Hybridization: RNA for Northern hybridization was denatured using the glyoxal method. 2.7 μl of glyoxal (final concentration, 1M), 1.6 μl of sodium phosphate (pH 7.0, final concentration, 10 mM), and 8 μl of dimethylsulfoxide (final concentration, 50%) were added to 10 μg of total RNA (3.7 μl). The mixture was kept at 50° C. for one hour and then subjected to electrophoresis in 1.4% agarose (10 mM sodium phosphate, pH 7.0). After electrophoresis, RNA was blotted onto a nylon membrane (Biodyne A). The RNA was fixed onto the membrane by treatment for two hours at 80° C. Hybridization was carried out in a mixture of 50% formamide, 0.1% SDS, 0.1 mg/ml salmon sperm DNA, 5×SSPE (0.9 M NaCl, 50 mM sodium phosphate, 5 mM EDTA, pH 7.4), and 5× Denhardt's solution (0.1% bovine serum albumin, 0.1% Ficoll, 0.1% polyvinylpyrrolidone) at 42° C. for one day. The membrane was then washed with 0.1×SSC (15 mM NaCl, 1.5 mM sodium citrate) three times for five minutes each time at room temperature, and twice for 30 minutes each time at 65° C., and then exposed on x-ray film.
# [4] = system: CIGR1 gene and CIGR2 gene; assay: Elicitor (chitin/chitosan oligomer) induction of CIGR1 and CIGR2 gene expression in cultured rice cells (Northern blot hybridization); type: cell-based, rice (Oryza sativa cv. Nipponbare)
# Procedure: as §2, §3
# (3) A method for gibberellin treatment of cultured cells and green leaves: The cultured cells were pre-washed several times with 2,4-D-free N6 medium, and then suspended in the same medium and shaken for two hours at 25° C. Gibberellin (GA3 dissolved in ethanol) was added to make up each final concentration, cells were cultured with shaking for predetermined periods, and then used for RNA extraction. Nipponbare plants grown for three weeks after seeding were sprayed with gibberellin. The third and fourth leaves were collected at certain intervals, and total RNA was extracted. […]
# α-amylase = conditions: aleurone layer of wheat, cited from earlier work
# [5] = system: elicitor-responsive genes; conditions: K-252a pretreatment; cited from earlier work
# [6] = system: CIGR1 gene and CIGR2 gene; assay: Expression of CIGR1 and CIGR2 genes in green leaves of rice after GA3 spraying; type: in vivo, rice (Nipponbare); conditions: third and fourth leaves, three weeks after seeding, sprayed with GA3 (50 μM)
# Procedure: as §3, §4
# In the presence of auxins, cultured plant cells are thought to be in an undifferentiated state. […] Thus, the responses of these two genes to gibberellin were analyzed in the green leaves of rice. […]
# [7] = system: CHRC, a carotenoid-associated protein in the chromoplasts of cucumber petals; conditions: cited from earlier work
# [8] = ten minutes of GA3 treatment, 2,4-D-free medium
smiles,measurement,setting,value
O=C(O)c1cc(N(Cc2ccccc2O)Cc2cc(O)ccc2O)ccc1O [Lavendustin A],inhibition of induction of both genes by GA3,[1],inhibited induction by GA3 almost completely
same,inhibition of induction of both genes by chitin heptamer,[2],hardly inhibited
C=C1C[C@]23C[C@@]1(O)CC[C@H]2[C@@]12CC[C@H](O)[C@@](C)(C(=O)O1)[C@H]2[C@@H]3C(=O)O [GA1],induction of CIGR1 and CIGR2 gene expression by gibberellin species,[3],induced the expression of both genes
C=C1C[C@]23C[C@H]1CC[C@H]2[C@]1(C(=O)O)CC[C@H](O)[C@@](C)(C(=O)O)[C@H]1[C@@H]3C(=O)O [GA13],induction of CIGR1 and CIGR2 gene expression by gibberellin species,[3],only active type gibberellins induced the expression of both genes
"CC(=O)N[C@H]1[C@H](O[C@@H]([C@H](O)[C@H](C=O)NC(C)=O)[C@H](O)CO)O[C@H](CO)[C@@H](O[C@@H]2O[C@H](CO)[C@@H](O[C@@H]3O[C@H](CO)[C@@H](O[C@@H]4O[C@H](CO)[C@@H](O[C@@H]5O[C@H](CO)[C@@H](O[C@@H]6O[C@H](CO)[C@@H](O)[C@H](O)[C@H]6NC(C)=O)[C@H](O)[C@H]5NC(C)=O)[C@H](O)[C@H]4NC(C)=O)[C@H](O)[C@H]3NC(C)=O)[C@H](O)[C@H]2NC(C)=O)[C@@H]1O [chitin heptamers, N-acetylchitoheptaose]",response of both genes to chitin oligomers and chitosan oligomers,"[4]; chitin monomers to heptamers, tetramer and heptamer chitosan oligomers",strongest responses
same,time up to which expression continued to increase,[4]; time-course after chitin heptamer treatment,up to 90 minutes
same,increase in mRNA amount of both genes after elicitor treatment,[4]; time-course in cultured rice cells,Significant increases in mRNA amount were observed in both genes five minutes after treatment
C=C1[C@@H](O)[C@@H]2O[C@]3(CC[C@H](/C=C/[C@@H](C)[C@@H]4CC(C)=C[C@@]5(O[C@H](C[C@@](C)(O)C(=O)O)CC[C@H]5O)O4)O3)CC[C@H]2O[C@@H]1[C@@H](O)C[C@H](C)[C@H]1O[C@@]2(CCCCO2)CC[C@H]1C [okadaic acid],inhibition of induction of both genes by GA3,[1],inhibited almost completely
same,inhibition of induction of both genes by chitin heptamer,[2],hardly inhibited
same,inhibition of gibberellin's induction of α-amylase,α-amylase,specifically inhibited; also recorded: inhibited by okadaic acid
COC(=O)[C@@]1(O)C[C@H]2O[C@]1(C)n1c3ccccc3c3c4c(c5c6ccccc6n2c5c31)C(=O)NC4 [K-252-A],inhibition of induction of both genes by GA3,[1],almost completely inhibited
same,inhibition of induction of expression of elicitor-responsive genes,[5],strongly inhibited
same,inhibition of induction of both genes by chitin heptamer,[2],almost completely inhibited
same,inhibition of gibberellin's induction of α-amylase,α-amylase; listed as K252a,hardly inhibited induction
C=C1C[C@]23C[C@@]1(O)CC[C@H]2[C@]1(C(=O)O)CCC[C@@](C)(C(=O)O)[C@H]1[C@@H]3C(=O)O [GA17],induction of CIGR1 and CIGR2 gene expression by gibberellin species,[3],only active type gibberellins induced the expression of both genes
C=C1C[C@]23C[C@@]1(O)CC[C@H]2[C@@]12C=C[C@H](O)[C@@](C)(C(=O)O1)[C@H]2[C@@H]3C(=O)O [GA3],expression of CIGR1 and CIGR2 genes over time after GA3 treatment,"[3]; cells pre-washed with 2,4-D-free medium, two hours of pre-culture in the same medium",Transient expression with a maximum at ten minutes after treatment
same,induction of CIGR1 and CIGR2 gene expression by gibberellin species,[3],induced the expression of both genes
same,"change in gene expression (CIGR1, CIGR2) after GA3 treatment","[3]; suspension-cultured cells in medium comprising 2,4-D, observed for three hours after treatment",no significant change in expression amount was found; also recorded: No change in gene expression was detected
same,GA3 concentration at which induction of expression of both genes began to appear,[3]; [8],10^−6 M
same,GA3 concentration at which induction reached near saturation,[3]; [8],~10^−4 M
same,time of maximum transient expression of both genes after spraying,[6],30 min
same,GA3 concentration required for induction of CHRC,[7],at least 10^−7 M
same,GA3 concentration up to which CHRC expression level increased approximately linearly,[7],up to 10^−4 M
C=C1C[C@]23C[C@H]1CC[C@H]2[C@@]12CC[C@H](O)[C@@](C)(C(=O)O1)[C@H]2[C@@H]3C(=O)O [GA4],induction of CIGR1 and CIGR2 gene expression by gibberellin species,[3],induced the expression of both genes
